Measurements from a compilation of properties of binary mixtures (doi:10.1021/acs.jpcb.5b11900).

Assay: xn = mol fraction of the nth substance listed
Conditions: 101 kPa

## CCC[NH3+].O=[N+]([O-])[O-] + CCCC[NH3+].O=[N+]([O-])[O-]
298.15 K, x1 = 0.5
  electrical conductivity: 0.606 S/m
  viscosity: 80.6 mPa·s
303.15 K, x1 = 0.5
  electrical conductivity: 0.729 S/m
  viscosity: 65.7 mPa·s
308.15 K, x1 = 0.5
  electrical conductivity: 0.866 S/m
  viscosity: 54.2 mPa·s
318.15 K, x1 = 0.5
  electrical conductivity: 1.18 S/m
  viscosity: 38.3 mPa·s
333.15 K, x1 = 0.5
  viscosity: 24.4 mPa·s
338.15 K, x1 = 0.5
  viscosity: 21.3 mPa·s
348.15 K, x1 = 0.5
  viscosity: 16.7 mPa·s
353.15 K, x1 = 0.5
  viscosity: 14.9 mPa·s

## CC[NH3+].O=[N+]([O-])[O-] + CC[N+](CC)(CC)CC.O=[N+]([O-])[O-]
293.15 K, x2 = 0
  electrical conductivity: 1.93 S/m
  viscosity: 43.5 mPa·s
298.15 K, x2 = 0
  electrical conductivity: 2.25 S/m
  viscosity: 36.5 mPa·s
303.15 K, x2 = 0
  electrical conductivity: 2.6 S/m
  viscosity: 31 mPa·s
308.15 K, x2 = 0
  electrical conductivity: 2.97 S/m
  viscosity: 26.5 mPa·s
313.15 K, x2 = 0
  electrical conductivity: 3.37 S/m
  viscosity: 22.8 mPa·s
318.15 K, x2 = 0
  electrical conductivity: 3.78 S/m
  viscosity: 20 mPa·s
323.15 K, x2 = 0
  electrical conductivity: 4.22 S/m
  viscosity: 17.6 mPa·s
328.15 K, x2 = 0
  viscosity: 15.6 mPa·s
333.15 K, x2 = 0
  viscosity: 13.8 mPa·s
343.15 K, x2 = 0
  viscosity: 11.2 mPa·s
348.15 K, x2 = 0
  viscosity: 10.2 mPa·s
353.15 K, x2 = 0
  viscosity: 9.2 mPa·s

## CC[NH3+].O=[N+]([O-])[O-] + CC[NH2+]CC.O=[N+]([O-])[O-]
288.15 K, x2 = 0
  electrical conductivity: 1.62 S/m
293.15 K, x2 = 0
  electrical conductivity: 1.93 S/m
  viscosity: 43.5 mPa·s
298.15 K, x2 = 0
  electrical conductivity: 2.25 S/m
  viscosity: 36.5 mPa·s
303.15 K, x2 = 0
  electrical conductivity: 2.6 S/m
  viscosity: 31 mPa·s
308.15 K, x2 = 0
  electrical conductivity: 2.97 S/m
  viscosity: 26.5 mPa·s
313.15 K, x2 = 0
  electrical conductivity: 3.37 S/m
  viscosity: 22.8 mPa·s
318.15 K, x2 = 0
  electrical conductivity: 3.78 S/m
  viscosity: 20 mPa·s
328.15 K, x2 = 0
  viscosity: 15.6 mPa·s
338.15 K, x2 = 0
  viscosity: 12.5 mPa·s
348.15 K, x2 = 0
  viscosity: 10.2 mPa·s
353.15 K, x2 = 0
  viscosity: 9.21 mPa·s

## CCCC[NH3+].O=[N+]([O-])[O-] + CC[NH3+].O=[N+]([O-])[O-]
288.15 K, x2 = 0.5
  electrical conductivity: 0.646 S/m
293.15 K, x2 = 0.25
  electrical conductivity: 0.507 S/m
  viscosity: 104.4 mPa·s
293.15 K, x2 = 0.5
  electrical conductivity: 0.792 S/m
  viscosity: 82.3 mPa·s
293.15 K, x2 = 0.75
  electrical conductivity: 1.2 S/m
  viscosity: 62 mPa·s
298.15 K, x2 = 0.25
  electrical conductivity: 0.615 S/m
  viscosity: 83.7 mPa·s
298.15 K, x2 = 0.5
  electrical conductivity: 0.951 S/m
  viscosity: 66.6 mPa·s
298.15 K, x2 = 0.75
  electrical conductivity: 1.43 S/m
  viscosity: 50.6 mPa·s
303.15 K, x2 = 0.25
  electrical conductivity: 0.742 S/m
  viscosity: 68.1 mPa·s
303.15 K, x2 = 0.5
  electrical conductivity: 1.13 S/m
  viscosity: 54.7 mPa·s
308.15 K, x2 = 0.5
  electrical conductivity: 1.33 S/m
  viscosity: 45.6 mPa·s
308.15 K, x2 = 0.75
  electrical conductivity: 1.95 S/m
  viscosity: 35.5 mPa·s
313.15 K, x2 = 0.25
  electrical conductivity: 1.03 S/m
  viscosity: 47 mPa·s
313.15 K, x2 = 0.5
  electrical conductivity: 1.54 S/m
  viscosity: 38.5 mPa·s
313.15 K, x2 = 0.75
  electrical conductivity: 2.24 S/m
  viscosity: 30.6 mPa·s
318.15 K, x2 = 0.25
  electrical conductivity: 1.2 S/m
  viscosity: 39.5 mPa·s
318.15 K, x2 = 0.5
  electrical conductivity: 1.77 S/m
  viscosity: 32.7 mPa·s
318.15 K, x2 = 0.75
  electrical conductivity: 2.55 S/m
  viscosity: 26 mPa·s
323.15 K, x2 = 0.5
  electrical conductivity: 2.02 S/m
  viscosity: 28.1 mPa·s
323.15 K, x2 = 0.75
  electrical conductivity: 2.88 S/m
  viscosity: 22.6 mPa·s
328.15 K, x2 = 0.25
  viscosity: 29 mPa·s
328.15 K, x2 = 0.5
  viscosity: 24.4 mPa·s
328.15 K, x2 = 0.75
  viscosity: 19.8 mPa·s
333.15 K, x2 = 0.5
  viscosity: 21.3 mPa·s
333.15 K, x2 = 0.75
  viscosity: 17.6 mPa·s
338.15 K, x2 = 0.5
  viscosity: 18.7 mPa·s
343.15 K, x2 = 0.5
  viscosity: 16.6 mPa·s
343.15 K, x2 = 0.75
  viscosity: 13.8 mPa·s
348.15 K, x2 = 0.25
  viscosity: 17.2 mPa·s
348.15 K, x2 = 0.5
  viscosity: 14.8 mPa·s
348.15 K, x2 = 0.75
  viscosity: 12.4 mPa·s
353.15 K, x2 = 0.75
  viscosity: 11.3 mPa·s

## CCC[NH3+].O=[N+]([O-])[O-] + CC[NH3+].O=[N+]([O-])[O-]
288.15 K, x2 = 0.5
  electrical conductivity: 0.991 S/m
298.15 K, x2 = 0.5
  electrical conductivity: 1.42 S/m
  viscosity: 53 mPa·s
308.15 K, x2 = 0.5
  electrical conductivity: 1.93 S/m
  viscosity: 37.1 mPa·s
313.15 K, x2 = 0.5
  electrical conductivity: 2.22 S/m
  viscosity: 31.6 mPa·s
323.15 K, x2 = 0.5
  electrical conductivity: 2.85 S/m
  viscosity: 23.5 mPa·s
328.15 K, x2 = 0.5
  viscosity: 20.5 mPa·s
333.15 K, x2 = 0.5
  viscosity: 18.1 mPa·s
338.15 K, x2 = 0.5
  viscosity: 16 mPa·s
343.15 K, x2 = 0.5
  viscosity: 14.3 mPa·s
348.15 K, x2 = 0.5
  viscosity: 12.8 mPa·s
